According to PubChem BioAssay AID1963837 (Molecular Pharmacology Branch, DTP, NCI, 2024):
“And” between values parts separate entries of the source, which are not always exact repeats. Equal entries are not always repeated.

Test system: 843126-344-R-J1-PDC complex spheroid viability
Test: Anticancer human tumor 843126-344-R-J1-PDC patient-derived melanoma cell line growth inhibition [POLQ]
Settings: for viability, T/C: stronger effect = lower value
Experimental: Multicellular complex tumor spheroid response to Polymerase (POL) inhibitors (novobiocin, ART-558, RP6685) in combination with a variety of drugs and investigational agents in selected tumor cell lines
The POL inhibitors (novobiocin, ART-558, and RP6685) were evaluated both individually and in combination with standard of care and investigational anticancer small molecules within a complex spheroid model of solid tumors. . Complex spheroids include a stromal component modeled by human endothelial cells (HUVEC) and fibroblasts modeled by human mesenchymal stem cells (MSCs). The concentration ranges selected for each drug and investigational agent were based upon clinically achievable concentrations if the clinical Cmax of the agent was known.
Compounds. The drugs and investigational agents: novobiocin (NSC847541), ART-558 (NSC835418), RP-6685 (NSC848927), peposertib (NSC802822), ceralasertib (NSC780249), elimusertib (NSC800525), camonsertib (NSC841442), AZD-1390 (NSC803789), olaparib (NSC753686), talazoparib (NSC767125), rucaparib (NSC756644), sotorasib (NSC818433), MRTX-1133 (NSC836407), SN-38 (NSC673596), topotecan (NSC609699), epotoside (NSC141540), doxorubicin (NSC123127), gemcitabine (NSC613327), 5-fluorouracil (NSC19893), paclitaxel (NSC125973), vemurafenib (NSC761431), MSA-2 (NSC828583), SN-011 (NSC837082), adavosertib (NSC754352), prexasertib (NSC758257), carboplatin (NSC241240) and oxaliplatin (NSC266046), were obtained from the National Cancer Institute (NCI) Developmental Therapeutics Program Chemical Repository (21). The FDA-approved anticancer drug set is available from the Developmental Therapeutics Program at https://dtp.cancer.gov/organization/dscb/obtaining/. […] The stock solutions were prepared in dimethyl sulfoxide (DMSO, Sigma-Aldrich, St. Louis, MO, cat. D2650), except for the platinum compounds which were prepared in saline (Quality Biological, Gaithersburg, MD, cat. 114-055-101), at 800-fold the tested concentration and stored at -70 degrees C prior to their use. All drugs and investigational agents were tested over a range starting from a high concentration at or near the clinical Cmax and decreasing in half-log increments. If the clinical Cmax for an agent had not been determined, the highest concentration tested was 10 microM, except for SN-38, which was tested at a high concentration of 1 microM.
Cell Culture. All cells were maintained in an incubator at 37 degrees C and 5% CO2 with 95% humidity. The PDC lines were cultured according to standard operating procedures established by the NCI PDMR (https://pdmr.cancer.gov). Table 3 of the manuscript, lists the cell lines along with the number of the three cell types plated to form the mct-spheroids and media for tumor cell growth. After thawing, all PDC lines, except 997537-175-T-J1-PDC and 415267-285-R-J2-PDC, were cultured in Matrigel-coated flasks prepared with a working solution of 1X Ham's F-12 nutrient mix, without supplementation (Thermo Fisher Scientific, cat. 11765054), 100 U/mL penicillin-streptomycin (Thermo Fisher Scientific, cat. 15140122), and 2.5% Matrigel (Corning Inc., Corning, NY, cat. 354248) for the first three passages. The two PDC lines 997537-175-T-J1-PDC and 415267-285-R-J2-PDC were cultured on uncoated flasks. The 857933-349-R-J2-PDC line was cultured in 6C/Colon 1B media containing advanced DMEM/F-12 (Thermo Fisher Scientific, cat. 12634028), 10 mM HEPES (Thermo Fisher Scientific, cat. 15630080), 1X GlutaMAX supplement (Thermo Fisher Scientific, cat. 35050061), 0.1 mg/mL primocin (InvivoGen, San Diego, CA, cat. ant-pm-2), 10% defined fetal bovine serum, heat inactivated (HyClone Laboratories Inc., Logan, UT, cat. SH30070.03HI), 50% L-WRN conditioned media (ATCC, cat. CRL-3276), 1.25 mM N-Acetyl-L-cysteine (Sigma-Aldrich, cat. A9165), 10 mM nicotinamide (Sigma-Aldrich, cat. N0636), 1X B-27 supplement (Thermo Fisher Scientific, cat. 17504044), 1X N-2 supplement (Thermo Fisher Scientific, cat. […]
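For viability, T/C in this document: spheroids exposed to drugs for seven days before readout.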

CC(=O)O[C@H]1C(=O)[C@@]2(C)[C@H]([C@H](OC(=O)c3ccccc3)[C@]3(O)C[C@H](OC(=O)[C@H](O)[C@@H](NC(=O)c4ccccc4)c4ccccc4)C(C)=C1C3(C)C)[C@]1(OC(C)=O)CO[C@@H]1C[C@@H]2O + Nc1ccc(C#CCN(C(=O)Cc2ncc(C(F)(F)F)cc2C(F)(F)F)c2ccc(F)cc2)nn1
IC50 (curve of first compound, second compound 0.0316 µM): > 3 µM | IC50 (curve of first compound, second compound 0.1 µM): > 3 µM | IC50 (curve of first compound, second compound 0.316 µM): > 3 µM | IC50 (curve of first compound, second compound 1 µM): > 3 µM | IC50 (curve of first compound, second compound 3.16 µM): > 3 µM | IC50 (curve of first compound, second compound 10 µM): > 3 µM | viability, T/C (second compound 0.0316 µM, first compound 0.00949 µM): 65.6% | viability, T/C (second compound 0.0316 µM, first compound 0.03 µM): 58.7% | viability, T/C (second compound 0.0316 µM, first compound 0.0949 µM): 65% | viability, T/C (second compound 0.0316 µM, first compound 0.3 µM): 65.8% | viability, T/C (second compound 0.0316 µM, first compound 0.949 µM): 68.5% | viability, T/C (second compound 0.0316 µM, first compound 3 µM): 69.6% | viability, T/C (second compound 0.1 µM, first compound 0.00949 µM): 65.6% | viability, T/C (second compound 0.1 µM, first compound 0.03 µM): 53.5% | viability, T/C (second compound 0.1 µM, first compound 0.0949 µM): 56.7% | viability, T/C (second compound 0.1 µM, first compound 0.3 µM): 61.5% | viability, T/C (second compound 0.1 µM, first compound 0.949 µM): 78.6% | viability, T/C (second compound 0.1 µM, first compound 3 µM): 61.2% | viability, T/C (second compound 0.316 µM, first compound 0.00949 µM): 68.1% | viability, T/C (second compound 0.316 µM, first compound 0.03 µM): 53.4% | viability, T/C (second compound 0.316 µM, first compound 0.0949 µM): 70.7% | viability, T/C (second compound 0.316 µM, first compound 0.3 µM): 61.6% | viability, T/C (second compound 0.316 µM, first compound 0.949 µM): 64.8% | viability, T/C (second compound 0.316 µM, first compound 3 µM): 73.5% | viability, T/C (second compound 1 µM, first compound 0.00949 µM): 67.2% | viability, T/C (second compound 1 µM, first compound 0.03 µM): 57.1% | viability, T/C (second compound 1 µM, first compound 0.0949 µM): 62.2% | viability, T/C (second compound 1 µM, first compound 0.3 µM): 55.6% | viability, T/C (second compound 1 µM, first compound 0.949 µM): 62.8% | viability, T/C (second compound 1 µM, first compound 3 µM): 62.7% | viability, T/C (second compound 3.16 µM, first compound 0.00949 µM): 69.3% | viability, T/C (second compound 3.16 µM, first compound 0.03 µM): 62.1% | viability, T/C (second compound 3.16 µM, first compound 0.0949 µM): 54.9% | viability, T/C (second compound 3.16 µM, first compound 0.3 µM): 59.8% | viability, T/C (second compound 3.16 µM, first compound 0.949 µM): 63.7% | viability, T/C (second compound 3.16 µM, first compound 3 µM): 61.5% | viability, T/C (second compound 10 µM, first compound 0.00949 µM): 65.5% | viability, T/C (second compound 10 µM, first compound 0.03 µM): 57.6% | viability, T/C (second compound 10 µM, first compound 0.0949 µM): 61.5% | viability, T/C (second compound 10 µM, first compound 0.3 µM): 61.3% | viability, T/C (second compound 10 µM, first compound 0.949 µM): 60.2% | viability, T/C (second compound 10 µM, first compound 3 µM): 61.8%

CC1COCCN1c1cc(C2(S(C)(=N)=O)CC2)nc(-c2ccnc3[nH]ccc23)n1 (stereo not drawn)
viability, T/C (compound 0.0316 µM): 87.2% and 79.8% and 109% | viability, T/C (compound 0.1 µM): 93.7% and 82.8% and 102% | viability, T/C (compound 0.316 µM): 97.2% and 83.1% and 95% | viability, T/C (compound 1 µM): 81.4% and 97.7% and 89.5% | viability, T/C (compound 3.16 µM): 73.4% and 81.9% and 68% | viability, T/C (compound 10 µM): 49.9% and 55.9% and 55.2% | IC50 (curve of compound): > 10 µM

COc1cccc(OCCCN)c1-c1cc(Nc2cnc(C#N)cn2)n[nH]1
viability, T/C (compound 0.00316 µM): 97.4% and 92.9% and 79.1% | viability, T/C (compound 0.01 µM): 79.3% and 86.4% and 75.8% | viability, T/C (compound 0.0316 µM): 59% and 60.4% and 62.1% | viability, T/C (compound 0.1 µM): 49.5% and 47.9% and 49.9% | viability, T/C (compound 0.316 µM): 47.6% and 47.8% and 44.3% | viability, T/C (compound 1 µM): 35.3% and 32.9% and 35.2% | IC50 (curve of compound): 0.109 µM and 0.0864 µM and 0.114 µM

O=C(c1cc(Cc2n[nH]c(=O)c3ccccc23)ccc1F)N1CCN(C(=O)C2CC2)CC1
viability, T/C (compound 0.0316 µM): 91.6% and 93.9% and 74.9% | viability, T/C (compound 0.1 µM): 78.7% and 90% and 91.5% | viability, T/C (compound 0.316 µM): 103% and 77.3% and 93.6% | viability, T/C (compound 1 µM): 74.1% and 76.7% and 83% | viability, T/C (compound 3.16 µM): 86.2% and 79.5% and 87.6% | viability, T/C (compound 10 µM): 81% and 72.1% and 82.1% | IC50 (curve of compound): > 10 µM
